# “Also recorded” adds a separate entry of the source.
# What was measured:
# [1] = Pharmacokinetics, plasma and brain concentration by UHPLC-TOF; type: in vivo, mice
# Method: Compound 22 is an analog of Compound 7. […] Compound 22 pharmacokinetic properties was measured in three male CD1 mice at several timepoints. Compound 22 was dissolved in 10% DMSO, 10%, cremaphor, and 80% saline. The tested dose was 33.3 mg/kg body weight. Brain tissue was homogenized and protein precipitated with acetonitrile. […] As such, Compound 22 was selected for testing in an animal model of HD the R6/2 model. As described below, Compound 22 and its analogs were further tested for their effects on striatal cell viability and effects of mHTT levels.
# STHdh 7/7 striatal cells = test: Cell viability of heat shocked STHdh 7/7 striatal cells; type: cell-based, mouse; conditions: Mus musculus, 48 hours treatment, read-out: Cell Viability striatal cells 3h heat shocked
# Method: RESULTS - Table 7b summarizes the effect of the compounds on cell viability. STHdh 7/7 were heat shocked for 3 hours and treated for 48 hours with small molecule compounds. Table 2 lists the cell viability in striatal cells after 48 hours.
# Effect of Compound 22 on Cell Viability of Wildtype Striatal Neurons - STHdh 7/7 cells are striatal cells that express wildtype huntingtin. These cells were cultured in the same conditions as described above for STHdh 111/111. The neurons were first heat shocked for 3 hours at 41° C. as described above. After 48 hours of treatment with the small molecule Compounds, cell viability was determined using the method described above. The “buffer” control is represents cells treated with a buffer only, without any compounds added. Some of the compounds show higher cell viability in comparison to control heat shocked STHdh 7/7 neurons with buffer and no treatment (FIG. 9).
# [2] = test system: Htt14A2.6 PC12 cells (mHttex1-GFP); test: mHTT aggregation by filter retardation assay in Htt14A2.6 PC12 cells; type: cell-based; conditions: 24 hour treatment, different concentrations
# Method: Compounds from the Biacore screening were selected for measurement of aggregation in a cell model Htt14A2.6 PC12. Htt14A2.6 PC12 cells express a GFP- tagged 97Q mHtt exon 1 fusion protein (mHttex1-GFP) in the presence of ponasterone A. Htt14A2.6 PC12 cells were grown in medium containing 5 µM ponasterone A for 20 hours prior to treatment with the compounds. Htt14A2.6 PC12 cells were plated at 50~60% confluency. Compound 22 was tested at a final concentration of 80 nM, 400 nM and 10 µM in cell culture medium for 24 hours. Htt14A2.6 PC12 cells were harvested, rinsed, homogenized in cold phosphate-buffered saline containing protease inhibitor cocktail, and centrifuged at 16000 g for 30 min at 4° C. twice. About 25 µg total protein of each sample was resolved in 8% SDS PAGE, transferred onto PVDF membrane, blotted with an anti-GFP antibody, and visualized by ECL detection. mHTT aggregates were quantified from the cell lysates by filter retardation assay (Wanker, E.E., et al., Methods Enzymol (1999); 309: 375-386).
# [3] = test system: R6/2 mice of Huntington's disease; test: Grip strength in R6/2 mice; type: in vivo; conditions: 33 mg/kg i.p. QD; 4-12 weeks of age
# Method: (§1) Methods - Total of 20 female and male R6/2 mice and 10 female and male wild-type littermate control mice (WT) were used in the study. The mice were genotyped and the R6/2 mice were divided into different treatment groups based on their litter and baseline body weight. The treatment with Vehicle or Compound 22(33 mg/kg; 5 ml/kg, i.p. QD) was started at 4 weeks of age after the baseline behavioral tests (FIG. 10). Body weights were measured at 3 weeks of age and twice a week until the end of the study.
# The experimental groups were: • Group 1) 10 wild-type mice (mixed gender) treated with Vehicle (5 ml/kg, i.p., QD) starting at 4 weeks of age • Group 2) 10 R6/2 mice (mixed gender) treated with Vehicle (5 ml/kg, i.p., QD) starting at 4 weeks of age • Group 3) 10 R6/2 mice (mixed gender) treated with Compound 22 (33 mg/kg; 5 ml/kg, i.p. QD) starting at 4 weeks of age […]
# Mice were taken to the experimental room and, one at a time, were placed on the grip strength apparatus (San Diego Instruments, San Diego, USA) in such a way that the animal grabbed a small mesh grip with its forepaws. […] Five scores were recorded per animal in consecutive sequence, and the average of three best scores for each animal was used for the results. […]
# Exon1 Q46 protein = target: T1, Exon1 Q46 protein (Homo sapiens, UniProt P42858, INS38QQQQQQQQQQQQQQQQQQQQQQQQQ); test: Kd to Exon1 Q46 protein; type: binding
# T1 construct: fused on or other part: E. coli thioredoxin (TRX) at the N-terminus as a solubility handle; linker […]; C-terminal GSG-His6 tag
# mHTT = mHTT (Mus musculus, UniProt P42859, DEL28-30/G47A/INS49LLPQPQPP/INS60VA/L56P/P40L); test: Diffuse mHTT levels in heat shocked STHdh 111/111 striatal cells by immunocytochemistry; conditions: STHdh 111/111; in comparison to untreated cells
# Method: Pre-Treatment of striatal cell line - First the medium was removed and new DMEM (DMEM, high glucose, HEPES, no phenol red) medium, supplemented with 10% fetal bovine serum (FBS), 1% Penicillin-Streptomycin, containing 10 µM compound was added. The cells were incubated at 33° C. for 24 hours.
# Heat shock - Cells were heat shocked for 3 hours at 41° C.
# Treatment - Medium was removed and new DMEM (DMEM, high glucose, HEPES, no phenol red) medium, supplemented with 1% fetal bovine serum (FBS), 1% Penicillin-Streptomycin, containing 10 µM compound was added. The cells were incubated at 33° C. for 48 hours.
# Staining - Cells were permeabilized with 0.3% Triton X-100 in 4° C. PBS (pH 7.4 from ThermoFisher) for 10 minutes. Then the cells were washed two times with 4° C. PBS. Subsequently, cells are blocked with 3% NGS (normal goat serum from Thermo Fisher) in 4° C. PBS for 1 hour. Cells were incubated with primary antibodies in blocking buffer (PBS, 3% NGS, 0.02% NaN3) over night at 4° C. Primary antibodies were mouse antipolyglutamine monoclonal antibody 3B5H10 (Sigma-Aldrich) at 1:250 dilution and Guinea Pig anti-MAP2 polyclonal antibody (Synaptic Systems) at 1:500 dilution. 3B5H10 binds to diffuse mHTT. Diffuse mHTT is a monomeric and small oligomeric mHTT.
# Cells were washed 2 times with 4° C. PBS, and then incubated with secondary antibodies at 1:2000 dilution in blocking buffer for 1 hour at room temperature. […] Cells were washed 2 times with 4° C. PBS, and then the nuclei were counterstain with DAPI (ThermoFisher) for 10 min at room temperature in the dark. Cells were washed 2 times with 4° C. PBS, and then 4° C. PBS was added to cells and then images were acquired.
# Fluorescence Imaging - Imaging sessions were performed on a confocal microscope system (Carl Zeiss Microscopy) equipped with a dual spinning disk unit (Yokogawa). All components of the imaging system were controlled via the ZEN 2 software suite (Carl Zeiss Microscopy). The laser lines used were 405 nm, 488 nm and 639 nm to excite DAPI or the respective fluorophores. […] Nested t test was performed to calculate the significance amongst repeated measurements using GraphPad Prism software.
# ST HDH Q7/7 (CH00097, Coriell Institute) striatal derived cell line from a knock in transgenic mouse containing HTT loci with a humanized Exon 1 containing 7 polyglutamine repeats.
# EC 50 value was determined with non-linear regression.
# [4] = test system: R6/2 mice of Huntington's disease; test: Rotarod latency in R6/2 mice; type: in vivo; conditions: for rotarod performance versus vehicle treated R6/2 mice: 33 mg/kg i.p. QD
# Method: as §1
# The experimental groups were: • Group 1) 10 wild-type mice (mixed gender) treated with Vehicle (5 ml/kg, i.p., QD) starting at 4 weeks of age • Group 2) 10 R6/2 mice (mixed gender) treated with Vehicle (5 ml/kg, i.p., QD) starting at 4 weeks of age • Group 3) 10 R6/2 mice (mixed gender) treated with Compound 22 (33 mg/kg; 5 ml/kg, i.p. QD) starting at 4 weeks of age
# 44.3.7 - Compound Delivery and Dosing - Treatment with Compound 22 (33 mg/kg; 5 ml/kg, i.p. QD) or Vehicle was started at age week 4 and continued until the 12 weeks of age. The test articles were handled and stored and the dose formulations were prepared according to detailed instructions provided by the Sponsor.
# 44.3.9.1 - Rotarod - The Rotarod test was perfomed at 4 (pre-treatment baseline), 6, 8 and 10 weeks of age. Each testing day included a training trial of 5 min at 4 RPM on the Rotarod apparatus (AccuScan Instruments, Columbus, USA). 30 minutes later, the animals were tested for 3 consecutive accelerating trials of 6 min with the speed changing from 0 to 40 RPM over 360 seconds and with an inter-trial interval of at least 30 min. The latency to fall from the rod was recorded. Mice remaining on the rod for more than 360 s were removed and their time scored as 360 sec.
# 10 female R6/2 mice and 10 female wild-type littermate control mice (F1 generation) were bred by Charles River Laboratories, Sulzfeld, Germany by mating (F0 generation) WT males (C57BL/6J; systematically re-infused with pedigreed JAX mice, stock 000664) with ovarian transferred (OT) TG females (JAX, stock 006494). […]
# [5] = Microsomal stability in mice; type: in vitro ADME
# T1 sequence (P42858 whole entry, looked up, stated change not applied, the tested form may be a part): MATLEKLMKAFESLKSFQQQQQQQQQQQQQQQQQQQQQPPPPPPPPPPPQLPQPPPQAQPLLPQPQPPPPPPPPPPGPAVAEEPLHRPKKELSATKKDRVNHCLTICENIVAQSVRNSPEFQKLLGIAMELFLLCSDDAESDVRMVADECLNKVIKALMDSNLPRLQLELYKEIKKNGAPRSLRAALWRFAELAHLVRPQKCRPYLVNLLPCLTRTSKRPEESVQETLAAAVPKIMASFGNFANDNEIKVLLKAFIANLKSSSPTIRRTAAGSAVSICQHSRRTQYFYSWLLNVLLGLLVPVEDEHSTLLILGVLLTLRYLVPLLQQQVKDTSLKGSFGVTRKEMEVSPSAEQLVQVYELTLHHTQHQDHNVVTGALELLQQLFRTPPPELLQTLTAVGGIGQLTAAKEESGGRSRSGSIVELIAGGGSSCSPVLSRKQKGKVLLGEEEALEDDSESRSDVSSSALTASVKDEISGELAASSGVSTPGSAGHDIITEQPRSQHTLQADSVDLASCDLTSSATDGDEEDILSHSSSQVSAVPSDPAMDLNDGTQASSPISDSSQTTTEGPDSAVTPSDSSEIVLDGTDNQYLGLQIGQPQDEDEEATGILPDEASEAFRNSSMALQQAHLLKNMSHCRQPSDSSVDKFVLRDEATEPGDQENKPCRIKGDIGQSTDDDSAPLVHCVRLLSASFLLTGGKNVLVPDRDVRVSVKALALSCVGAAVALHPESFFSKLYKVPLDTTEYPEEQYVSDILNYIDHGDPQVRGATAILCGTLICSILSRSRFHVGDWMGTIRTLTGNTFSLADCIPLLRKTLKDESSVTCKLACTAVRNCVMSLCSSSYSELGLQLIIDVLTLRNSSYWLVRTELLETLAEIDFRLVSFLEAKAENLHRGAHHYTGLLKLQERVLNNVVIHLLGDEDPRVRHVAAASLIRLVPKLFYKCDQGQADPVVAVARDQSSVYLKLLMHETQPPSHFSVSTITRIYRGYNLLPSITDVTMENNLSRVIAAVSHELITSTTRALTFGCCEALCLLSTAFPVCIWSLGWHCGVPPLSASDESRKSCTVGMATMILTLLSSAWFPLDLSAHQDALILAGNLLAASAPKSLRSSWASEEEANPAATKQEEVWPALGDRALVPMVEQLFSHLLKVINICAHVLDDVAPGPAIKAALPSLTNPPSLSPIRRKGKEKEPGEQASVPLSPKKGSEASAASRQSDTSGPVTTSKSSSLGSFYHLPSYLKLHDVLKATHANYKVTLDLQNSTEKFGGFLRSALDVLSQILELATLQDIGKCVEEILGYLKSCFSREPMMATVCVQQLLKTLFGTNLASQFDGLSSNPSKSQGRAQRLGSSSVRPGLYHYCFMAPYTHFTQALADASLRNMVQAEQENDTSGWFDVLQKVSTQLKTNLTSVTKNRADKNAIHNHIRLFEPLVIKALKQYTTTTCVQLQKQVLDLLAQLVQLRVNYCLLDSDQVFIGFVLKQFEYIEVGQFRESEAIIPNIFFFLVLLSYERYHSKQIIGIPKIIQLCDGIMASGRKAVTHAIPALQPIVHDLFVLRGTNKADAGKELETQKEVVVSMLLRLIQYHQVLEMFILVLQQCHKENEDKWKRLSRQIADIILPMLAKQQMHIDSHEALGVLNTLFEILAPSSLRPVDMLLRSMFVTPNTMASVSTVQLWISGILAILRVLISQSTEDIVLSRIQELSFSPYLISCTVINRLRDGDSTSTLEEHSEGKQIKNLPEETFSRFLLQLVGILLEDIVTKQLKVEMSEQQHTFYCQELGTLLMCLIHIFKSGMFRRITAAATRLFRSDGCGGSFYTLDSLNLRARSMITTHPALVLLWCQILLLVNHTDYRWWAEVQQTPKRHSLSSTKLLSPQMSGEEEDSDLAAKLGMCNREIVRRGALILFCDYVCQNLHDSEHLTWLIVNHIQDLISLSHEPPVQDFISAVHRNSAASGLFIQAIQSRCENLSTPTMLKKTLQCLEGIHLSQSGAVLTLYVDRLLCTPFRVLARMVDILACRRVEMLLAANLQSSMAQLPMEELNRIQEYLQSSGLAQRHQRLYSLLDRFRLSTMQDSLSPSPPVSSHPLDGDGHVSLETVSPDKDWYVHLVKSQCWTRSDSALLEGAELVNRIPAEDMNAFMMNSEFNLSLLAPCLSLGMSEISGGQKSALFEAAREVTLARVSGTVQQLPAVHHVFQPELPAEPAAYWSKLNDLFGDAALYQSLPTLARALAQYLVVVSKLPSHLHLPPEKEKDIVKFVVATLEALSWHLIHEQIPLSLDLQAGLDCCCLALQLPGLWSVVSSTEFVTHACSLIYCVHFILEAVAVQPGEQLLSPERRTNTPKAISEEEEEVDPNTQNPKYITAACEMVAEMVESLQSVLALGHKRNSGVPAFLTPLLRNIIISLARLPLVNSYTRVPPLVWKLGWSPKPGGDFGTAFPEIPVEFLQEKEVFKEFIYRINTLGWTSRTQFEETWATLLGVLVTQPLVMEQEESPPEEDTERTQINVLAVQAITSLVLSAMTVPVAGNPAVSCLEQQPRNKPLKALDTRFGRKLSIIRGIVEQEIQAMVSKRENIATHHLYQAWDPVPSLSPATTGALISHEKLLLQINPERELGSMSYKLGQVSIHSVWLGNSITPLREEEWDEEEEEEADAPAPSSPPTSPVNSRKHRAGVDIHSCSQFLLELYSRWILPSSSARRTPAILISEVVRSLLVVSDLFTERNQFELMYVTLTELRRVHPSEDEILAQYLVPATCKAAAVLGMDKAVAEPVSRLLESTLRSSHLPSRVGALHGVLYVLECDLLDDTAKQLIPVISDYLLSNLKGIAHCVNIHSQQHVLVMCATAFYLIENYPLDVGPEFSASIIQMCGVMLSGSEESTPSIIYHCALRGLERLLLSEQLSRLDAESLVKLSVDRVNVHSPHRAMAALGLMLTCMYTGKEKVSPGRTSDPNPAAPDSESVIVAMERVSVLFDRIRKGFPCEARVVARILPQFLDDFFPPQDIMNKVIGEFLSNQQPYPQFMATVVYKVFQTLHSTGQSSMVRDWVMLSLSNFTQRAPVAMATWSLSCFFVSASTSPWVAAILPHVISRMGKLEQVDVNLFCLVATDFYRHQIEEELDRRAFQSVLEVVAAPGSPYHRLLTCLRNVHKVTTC
compound,measurement,setting,value
Cc1[nH]c2ccc(C(=O)NCCN(C(C)C)C(C)C)cc2c1C [Compound 22],penetration of the blood brain area in vivo,"[1]; male CD1 mice, 33.3 mg/kg body weight, 33.3 mg/kg",penetrates the blood brain area; also recorded: can penetrate the blood brain area in vivo
same,crossing of the blood brain barrier,"[1]; mouse, in vivo",can cross the blood brain barrier
same,viability at 10 µM,STHdh 7/7 striatal cells,34.9%
same,reduction of mHTT aggregation (filter retardation),[2],A reduction of aggregation of Htt14A2.6 PC12 was observed; also recorded: A reduction of mHTT in Htt14A2.6 PC12 cells was observed
same,grip strength versus vehicle treated R6/2 mice,[3],no significant differences
same,Kd,Exon1 Q46 protein,700 nM
same,Nuclear diffuse mHTT reduced by,mHTT,32%
same,improvement of latency to fall in comparison to untreated model mice,"[4]; R6/2 mice, 10 weeks of age",94%
same,rotarod performance versus vehicle treated R6/2 mice,"[4]; female R6/2 mice, 10 weeks of age, 33 mg/kg",significantly improved rotarod performance; also recorded: almost doubled the latency to fall
same,rotarod performance versus vehicle treated R6/2 mice,[4]; pooled genders or males,no significant differences
same,microsomal stability,[5],short
